Data on 14 compounds can be found in US4159328A, “Tetrahydro-1,3,5-thiadiazin-4-one derivative” (Nihon Nohyaku Co., Ltd., priority 1977, dated 1979).

Each structure is given as a SMILES string.

One assay relates to larvae of house mosquito (Culex pipiens pallens Coquillett). Briefly: Test Example 6: insecticidal activity to larvae of house mosquito. Type of assay: in vivo. The conditions noted are these: 120 h. The method, then: Insecticidal activity to larvae of house mosquito (Culex pipiens pallens Coquillett).
Test method: In a 200-ml beaker, was placed together with a feed 100 ml of a test composition diluted with deionized water to 10 ppm concentration. The test composition was infested with 20 first-instar larvae of house mosquito and the beaker was covered with a sheet of Japanese paper. The beaker was kept in a constant temperature cabinet at 25° C. Five days after the treatment, the dead-and-survival was inspected to calculate the mortality.
The mortality is the share of the test organisms that died. Compound `CCCCN1C(=O)N(c2ccccc2)CSC1=NC(C)C` [Compound 147] showed a mortality at 10 ppm of 100%.
On the same count and under the same terms, the value for `CCCCN=C1SCN(c2ccccc2)C(=O)N1CCCC` [Compound 146] was 100%.
On the same count and under the same terms, the value for `CN=C1SCN(c2ccc(Cl)cc2)C(=O)N1C` [Compound 188, 2-Methylimino-3-methyl-5-(p-chlorophenyl)tetrahydro-1,3,5-thiadiazin-4-one] was 100%.
Still for that read-out and setting: with `CC(C)N=C1SCN(c2ccc(Cl)cc2)C(=O)N1C(C)C` [Compound 194] the figure was 80%.

The next assay concerns larvae of green rice leafhopper (Nephotettix cincticeps Uhler). Briefly: Test Example 5: activity against larvae of green rice leafhopper. In kind it is in vivo. Particulars: 168 h, 400 ppm, second-instar larvae, 25° C., seven days after treatment, read-out: Mortality. The method, then:
Activity against larvae of green rice leafhopper (Nephotettix cincticeps Uhler).
Testing method: Five rice seedlings of the 1.5 leaf age were dipped in a test composition of 400 ppm concentration for 30 seconds. After air-drying, the seedlings were placed in a glass tube containing 1 ml of water and infested with five second-instar larvae of green rice leafhopper. The glass tube was left standing in a constant temperature cabinet at 25° C. Seven days after the treatment, dead-and-survivalwas inspected to calculate the mortality (3-replication test).
In the case of `CN=C1SCN(c2ccc(Cl)cc2)C(=O)N1C` [Compound 188, 2-Methylimino-3-methyl-5-(p-chlorophenyl)tetrahydro-1,3,5-thiadiazin-4-one], the mortality at 400 ppm worked out at 100%.
As to `CC(C)N=C1SCN(c2ccc(Cl)cc2)C(=O)N1C(C)C` [Compound 194], the mortality at 400 ppm worked out at 100%.

For the next assay, the system named is larvae of 28-spotted lady beetle (Epilachna vigintioctopunctana Fabricius). Briefly: Test Example 8: insecticidal activity against larvae of 28-spotted lady beetle. Type of assay: in vivo. The conditions noted are these: 120 h. As to the method: Insecticidal activity against larvae of 28-spotted lady beetle (Epilachna vigintioctopunctana Fabricius).
Testing method: Leaflets of tomato grown in a greenhouse were dipped in a test composition of 100 ppm concentration for 30 seconds and after that the leaflets were dried by air. In a Petri dish covered on the bottom with a piece of filter paper, were introduced 1 ml of water and three treated tomato leaflets. After having been infested with seven second-instar larvae of 28-spotted lady beetle, the Petri dish was left standing in a constant temperature cabinet at 25° C. Five days after the treatment, the dead-and-survival was inspected to calculate the mortality (2-replication test).
Compound `CC(C)N=C1SCN(c2ccc(Cl)c(Cl)c2)C(=O)N1Cc1ccccc1` [Compound 422] returned a mortality at 100 ppm of 90%.
Same read-out and setting: the value for `CCN=C1SCN(c2cc(Cl)cc(Cl)c2)C(=O)N1CC` [Compound 404] was 90%; that for `CCCCN1C(=O)N(c2ccccc2)CSC1=NC(C)C` [Compound 147] was 100%.
Still for that read-out and setting: the value for `CC(C)N1C(=O)N(c2ccc([N+](=O)[O-])cc2)CSC1=NC(C)(C)C` [Compound 364] was 80%.
Same read-out and setting: with `CC(C)N=C1SCN(c2ccc(Cl)cc2Cl)C(=O)N1C(C)C` [Compound 398] the figure was 80%; with `C=CCN1C(=O)N(c2cc(Cl)cc(Cl)c2)CSC1=NC(C)C` [Compound 412, 2-Isopropylimino-3-allyl-5-(3,5-dichlorophenyl)-tetrahydro-1,3,5-thiadiazin-4-one], 100%; with `CCCCN=C1SCN(c2ccccc2)C(=O)N1CCCC` [Compound 146], 100%.
Take `CCC(C)N=C1SCN(c2cc(Cl)cc(Cl)c2)C(=O)N1C(C)CC` (centres unmarked) [Compound 411]: the mortality at 100 ppm amounted to 100%.
The same measure, in the same setting: the value for `CC(C)N1C(=O)N(c2ccc(Cl)cc2Cl)CSC1=NC(C)(C)C` [Compound 399] was 100%; that for `CCCN1C(=O)N(c2cc(Cl)cc(Cl)c2)CSC1=NC(C)C` [Compound 405] was 90%.

Still in this assay, the particulars now being: 120 h, 100 ppm, second-instar larvae, 25° C., five days, read-out: Mortality.
For `CCC(C)N=C1SCN(c2ccccc2)C(=O)N1c1ccccc1` (centres unmarked) [Compound 163, 2-s-Butylimino-3,5-diphenyl-tetrahydro-1,3,5-thiadiazin-4-one], the mortality at 100 ppm is 60%.
Turning to `CCN1C(=O)N(c2ccc(Cl)c(Cl)c2)CSC1=NC(C)(C)C` [Compound 418], the mortality at 100 ppm was determined as 70%.

The test system of another assay is two-spotted spider mite (Tetranychus urticae Koch). Put plainly: Test Example 3: activity to two-spotted spider mite. Type of assay: in vivo. Particulars: 120 h, 1,000 ppm, 5 days after treatment. The text has this:
Activity to two-spotted spider mite (Tetranychus urticae Koch).
Testing method: Two-spotted spider mites were set free on the pot-planted soybean in a greenhouse. On the next day, a test composition of 1,000 ppm concentration was sprayed over the soybean by means of a spray gun. Two days or five days after the treatment, dead-and-survival was inspected to calculate the mortality.
The compound `CC(C)N=C1SCN(c2ccc(Cl)c(Cl)c2)C(=O)N1Cc1ccccc1` [Compound 422] returned a mortality at 1000 ppm of 100%.
`CCN=C1SCN(c2cc(Cl)cc(Cl)c2)C(=O)N1CC` [Compound 404] displayed a mortality at 1000 ppm of 100%.
Still for that read-out and setting: with `CC(C)N1C(=O)N(c2ccc([N+](=O)[O-])cc2)CSC1=NC(C)(C)C` [Compound 364] the figure was 60%; with `CC(C)N=C1SCN(c2ccc(Cl)cc2Cl)C(=O)N1C(C)C` [Compound 398], 80%; with `C=CCN1C(=O)N(c2cc(Cl)cc(Cl)c2)CSC1=NC(C)C` [Compound 412, 2-Isopropylimino-3-allyl-5-(3,5-dichlorophenyl)-tetrahydro-1,3,5-thiadiazin-4-one], 100%.
On the same count and under the same terms, the value for `CCN1C(=O)N(c2ccc(Cl)c(Cl)c2)CSC1=NC(C)(C)C` [Compound 418] was 70%; that for `CCC(C)N=C1SCN(c2cc(Cl)cc(Cl)c2)C(=O)N1C(C)CC` (centres unmarked) [Compound 411] was 100%; that for `CC(C)N1C(=O)N(c2ccc(Cl)cc2Cl)CSC1=NC(C)(C)C` [Compound 399] was 80%.
On the same count and under the same terms, with `CN=C1SCN(c2ccc(Cl)cc2)C(=O)N1C` [Compound 188, 2-Methylimino-3-methyl-5-(p-chlorophenyl)tetrahydro-1,3,5-thiadiazin-4-one] the figure was 90%; with `CC(C)N=C1SCN(c2ccc(Cl)cc2)C(=O)N1C(C)C` [Compound 194], 100%.

Another assay has as its system larvae of brown planthopper (Nilaparvata lugens Stahl). Put plainly: Test Example 1: insecticidal activity against larvae of brown planthopper. Type of assay: in vivo. The conditions noted are these: 120 h, third-instar larvae, 25° C., 5 days after treatment. The method, then: Insecticidal activity against larvae of brown planthopper (Nilaparvata lugens Stahl).
Testing method: Five rice seedlings of the 1.5 leaf age were dipped in a test composition of 400 ppm concentration for 30 seconds. After air-drying, the seedlings were placed in a glass tube containing 1 ml of water and infested with five third-instar larvae of brown planthopper. The glass tube was left standing in a constant temperature cabinet at 25° C. and 5 or 7 days after the treatment, dead-and-survival was observed. Mortality was calculated from the results of 3-replication test.
In the case of `CC(C)N=C1SCN(c2ccc(Cl)c(Cl)c2)C(=O)N1Cc1ccccc1` [Compound 422], the mortality at 400 ppm turned out to be 60%.
`CCCCN1C(=O)N(c2ccccc2)CSC1=NC(C)C` [Compound 147] displayed a mortality at 400 ppm of 100%.
Still for that read-out and setting: the value for `CC(C)N1C(=O)N(c2ccc([N+](=O)[O-])cc2)CSC1=NC(C)(C)C` [Compound 364] was 100%; that for `CC(C)N=C1SCN(c2ccc(Cl)cc2Cl)C(=O)N1C(C)C` [Compound 398] was 100%.
Still for that read-out and setting: with `C=CCN1C(=O)N(c2cc(Cl)cc(Cl)c2)CSC1=NC(C)C` [Compound 412, 2-Isopropylimino-3-allyl-5-(3,5-dichlorophenyl)-tetrahydro-1,3,5-thiadiazin-4-one] the figure was 100%; with `CCN1C(=O)N(c2ccc(Cl)c(Cl)c2)CSC1=NC(C)(C)C` [Compound 418], 60%; with `CCC(C)N=C1SCN(c2cc(Cl)cc(Cl)c2)C(=O)N1C(C)CC` (centres unmarked) [Compound 411], 60%.
The same measure, in the same setting: the value for `CC(C)N1C(=O)N(c2ccc(Cl)cc2Cl)CSC1=NC(C)(C)C` [Compound 399] was 100%; that for `CN=C1SCN(c2ccc(Cl)cc2)C(=O)N1C` [Compound 188, 2-Methylimino-3-methyl-5-(p-chlorophenyl)tetrahydro-1,3,5-thiadiazin-4-one] was 100%; that for `CC(C)N=C1SCN(c2ccc(Cl)cc2)C(=O)N1C(C)C` [Compound 194] was 100%.
